Experimental data taken from ChEMBL document CHEMBL3421527, “Synthesis and anti-mycobacterial activity of 2-chloronicotinaldehydes based novel 1H-1,2,3-triazolylbenzohydrazides” (Bioorg Med Chem Lett, 2015).
Converted amounts (≈) assume the structure as drawn.

Legend:
[1] = test system: Mycobacterium tuberculosis; test: Anti-mycobacterial activity against Mycobacterium tuberculosis H37Rv ATCC 27294 assessed as inhibition of microbial growth incubated for 5 days by MABA method; type: functional; details: H37Rv ATCC 27294, 120 h
PBMC = test: Cytotoxicity against PBMC (unknown origin) assessed as reduction in cell viability after 72 hrs by MTT assay; type: cell-based; details: Homo sapiens
RAW264.7 = test: Cytotoxicity against mouse RAW264.7 cells assessed as reduction in cell viability after 72 hrs by MTT assay; type: cell-based; details: RAW264.7, 72 h
[2] = Selectivity index, ratio of IC50 for PBMC (unknown origin) to MIC for Mycobacterium tuberculosis H37Rv ATCC 27294
[3] = Selectivity index, ratio of IC50 for mouse RAW264.7 cells to MIC for Mycobacterium tuberculosis H37Rv ATCC 27294; type: toxicity; details: read-out: Selectivity Index

Row | Compound | MIC [1] | IC50 (PBMC) | IC50 (RAW264.7) | Selectivity Index [2] | selectivity ratio [3]
1 | Cc1cnc(Cl)c(Cn2cc(C=O)nn2)c1 | 13.3 µM | – | – | – | –
2 | O=Cc1cn(Cc2cc(-c3ccccc3)cnc2Cl)nn1 | 5.2 µM | – | – | – | –
3 | Cc1ccc(-c2cnc(Cl)c(Cn3cc(C=O)nn3)c2)cc1 | 40.1 µM | – | – | – | –
4 | O=Cc1cn(Cc2cc(-c3ccc(F)cc3)cnc2Cl)nn1 | 19.8 µM | – | – | – | –
5 | Cc1cnc(N2CCOCC2)c(Cn2cc(C=O)nn2)c1 | 21.8 µM | – | – | – | –
6 | Cc1cnc(N2CCSCC2)c(Cn2cc(C=O)nn2)c1 | 10.3 µM | – | – | – | –
7 | O=Cc1cn(Cc2cc(-c3ccccc3)cnc2N2CCOCC2)nn1 | 4.5 µM | – | – | – | –
8 | O=Cc1cn(Cc2cc(-c3ccccc3)cnc2N2CCSCC2)nn1 | 8.6 µM | – | – | – | –
9 | Cc1ccc(-c2cnc(N3CCOCC3)c(Cn3cc(C=O)nn3)c2)cc1 | 4.3 µM | – | – | – | –
10 | Cc1ccc(-c2cnc(N3CCSCC3)c(Cn3cc(C=O)nn3)c2)cc1 | 33.1 µM | – | – | – | –
11 | Cc1cnc(Cl)c(Cn2cc(/C=N/NC(=O)c3ccc(F)cc3)nn2)c1 | 33.6 µM | – | – | – | –
12 | O=C(N/N=C/c1cn(Cc2cc(-c3ccccc3)cnc2Cl)nn1)c1ccc(F)cc1 | 3.6 µM | 357 µg/mL (≈ 821 µM) | 152 µg/mL (≈ 350 µM) | 228 | 97
13 | Cc1ccc(-c2cnc(Cl)c(Cn3cc(/C=N/NC(=O)c4ccc(F)cc4)nn3)c2)cc1 | 27.9 µM | – | – | – | –
14 | O=C(N/N=C/c1cn(Cc2cc(-c3ccc(F)cc3)cnc2Cl)nn1)c1ccc(F)cc1 | 13.8 µM | – | – | – | –
15 | Cc1cnc(Cl)c(Cn2cc(/C=N/NC(=O)c3ccc(C(F)(F)F)cc3)nn2)c1 | 3.7 µM | 337 µg/mL (≈ 797 µM) | 258 µg/mL (≈ 610 µM) | 216 | 165
16 | O=C(N/N=C/c1cn(Cc2cc(-c3ccccc3)cnc2Cl)nn1)c1ccc(C(F)(F)F)cc1 | 3.2 µM | 282 µg/mL (≈ 582 µM) | 313 µg/mL (≈ 646 µM) | 180 | 200
17 | Cc1ccc(-c2cnc(Cl)c(Cn3cc(/C=N/NC(=O)c4ccc(C(F)(F)F)cc4)nn3)c2)cc1 | 50.2 µM | – | – | – | –

Row | Compound | MIC [1] | IC50 (PBMC) | IC50 (RAW264.7) | Selectivity Index [2] | selectivity ratio [3]
18 | O=C(N/N=C/c1cn(Cc2cc(-c3ccc(F)cc3)cnc2Cl)nn1)c1ccc(C(F)(F)F)cc1 | 12.5 µM | – | – | – | –
19 | Cc1cnc(N2CCOCC2)c(Cn2cc(/C=N/NC(=O)c3ccc(F)cc3)nn2)c1 | 59.1 µM | – | – | – | –
20 | Cc1cnc(N2CCSCC2)c(Cn2cc(/C=N/NC(=O)c3ccc(F)cc3)nn2)c1 | 28.5 µM | – | – | – | –
21 | O=C(N/N=C/c1cn(Cc2cc(-c3ccccc3)cnc2N2CCOCC2)nn1)c1ccc(F)cc1 | 12.9 µM | – | – | – | –
22 | O=C(N/N=C/c1cn(Cc2cc(-c3ccccc3)cnc2N2CCSCC2)nn1)c1ccc(F)cc1 | 6.2 µM | > 400 µg/mL | 188 µg/mL (≈ 375 µM) | >128 | 60
23 | Cc1ccc(-c2cnc(N3CCOCC3)c(Cn3cc(/C=N/NC(=O)c4ccc(F)cc4)nn3)c2)cc1 | 100 µM | – | – | – | –
24 | Cc1ccc(-c2cnc(N3CCSCC3)c(Cn3cc(/C=N/NC(=O)c4ccc(F)cc4)nn3)c2)cc1 | 97.1 µM | – | – | – | –
25 | Cc1cnc(N2CCOCC2)c(Cn2cc(/C=N/NC(=O)c3ccc(C(F)(F)F)cc3)nn2)c1 | 26.4 µM | – | – | – | –
26 | Cc1cnc(N2CCSCC2)c(Cn2cc(/C=N/NC(=O)c3ccc(C(F)(F)F)cc3)nn2)c1 | 3.2 µM | 350 µg/mL (≈ 715 µM) | 212 µg/mL (≈ 433 µM) | 224 | 136
27 | O=C(N/N=C/c1cn(Cc2cc(-c3ccccc3)cnc2N2CCOCC2)nn1)c1ccc(C(F)(F)F)cc1 | 23.3 µM | – | – | – | –
28 | O=C(N/N=C/c1cn(Cc2cc(-c3ccccc3)cnc2N2CCSCC2)nn1)c1ccc(C(F)(F)F)cc1 | 2.8 µM | 188 µg/mL (≈ 341 µM) | 296 µg/mL (≈ 537 µM) | 120 | 189
29 | Cc1ccc(-c2cnc(N3CCOCC3)c(Cn3cc(/C=N/NC(=O)c4ccc(C(F)(F)F)cc4)nn3)c2)cc1 | 91.1 µM | – | – | – | –
30 | Cc1ccc(-c2cnc(N3CCSCC3)c(Cn3cc(/C=N/NC(=O)c4ccc(C(F)(F)F)cc4)nn3)c2)cc1 | 5.4 µM | > 400 µg/mL | 326 µg/mL (≈ 576 µM) | >128 | 104
31 | O=C(O)c1cn(C2CC2)c2cc(N3CCNCC3)c(F)cc2c1=O [CIPROFLOXACIN] | 12.6 µM | – | – | – | –
32 | CC[C@@H](CO)NCCN[C@@H](CC)CO [ETHAMBUTOL] | 15.3 µM | – | – | – | –
33 | NNC(=O)c1ccncc1 [ISONIAZID] | 2.6 µM | 169 µg/mL (≈ 1230 µM) | > 400 µg/mL | – | –
